{"source": "ChEMBL document CHEMBL3872274", "about": "“Synthesis and immunological evaluation of a low molecular weight saccharide with TLR-4 agonist activity” (Bioorg Med Chem, 2017)", "key": {"[1]": {"molecular_target": "T1, Toll-like receptor 4 (Mus musculus) (UniProt Q9QUK6)", "T1 sequence (whole entry)": "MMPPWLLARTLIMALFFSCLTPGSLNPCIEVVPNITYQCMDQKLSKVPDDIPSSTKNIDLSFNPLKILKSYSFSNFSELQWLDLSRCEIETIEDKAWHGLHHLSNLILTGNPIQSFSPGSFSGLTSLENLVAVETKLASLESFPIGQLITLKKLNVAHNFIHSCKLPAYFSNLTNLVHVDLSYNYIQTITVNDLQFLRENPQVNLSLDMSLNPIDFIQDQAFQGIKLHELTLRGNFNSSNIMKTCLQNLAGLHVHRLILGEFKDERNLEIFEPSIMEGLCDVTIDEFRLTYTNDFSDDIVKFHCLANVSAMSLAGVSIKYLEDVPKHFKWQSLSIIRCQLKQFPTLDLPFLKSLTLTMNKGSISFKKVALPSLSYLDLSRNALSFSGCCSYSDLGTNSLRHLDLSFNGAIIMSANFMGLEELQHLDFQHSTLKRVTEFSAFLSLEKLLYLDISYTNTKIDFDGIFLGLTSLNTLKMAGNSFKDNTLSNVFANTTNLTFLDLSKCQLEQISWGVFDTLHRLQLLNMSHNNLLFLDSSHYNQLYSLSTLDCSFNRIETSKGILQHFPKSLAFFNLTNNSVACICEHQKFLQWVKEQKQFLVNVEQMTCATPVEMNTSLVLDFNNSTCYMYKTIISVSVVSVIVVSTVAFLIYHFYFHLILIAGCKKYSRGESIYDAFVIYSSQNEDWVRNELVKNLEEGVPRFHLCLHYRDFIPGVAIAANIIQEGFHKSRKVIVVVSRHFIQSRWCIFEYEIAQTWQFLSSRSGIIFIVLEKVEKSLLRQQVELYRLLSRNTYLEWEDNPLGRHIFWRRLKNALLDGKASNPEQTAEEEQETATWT", "assay": "Agonist activity at TLR4 in TLR-2 deficient C57BL/6 mouse peritoneal exudate macrophages assessed as induction of IL-6 production at 1 to 5 ug/ml measured after up to 48 hrs by ELISA"}, "[2]": {"molecular_target": "T1, Toll-like receptor 4 (Mus musculus)", "assay": "Binding affinity to TLR-4 in C57BL/6 mouse peritoneal exudate macrophages assessed as cells binding to PE conjugated anti-TLR-4 monoclonal antibody at 1 ug/ml preincubated for 4 hrs followed by antibody addition by flow cytometry (reference value: 50.8%)"}, "[3]": {"molecular_target": "T1, Toll-like receptor 4 (Mus musculus)", "assay": "Agonist activity at TLR-4 in C57BL/6 mouse peritoneal exudate macrophages assessed as increase in TNF-alpha production at 1 to 5 ug/ml measured within 2 hrs by ELISA"}, "[4]": {"molecular_target": "T1, Toll-like receptor 4 (Mus musculus)", "assay": "Binding affinity to TLR-4 in C57BL/6 mouse peritoneal exudate macrophages assessed as decrease in cells binding to PE conjugated anti-TLR-4 monoclonal antibody preincubated for 4 hrs followed by antibody addition by flow cytometry"}, "[5]": {"molecular_target": "Toll-like receptor 2 (Mus musculus) (UniProt Q9QUN7)", "sequence (Q9QUN7 whole entry)": "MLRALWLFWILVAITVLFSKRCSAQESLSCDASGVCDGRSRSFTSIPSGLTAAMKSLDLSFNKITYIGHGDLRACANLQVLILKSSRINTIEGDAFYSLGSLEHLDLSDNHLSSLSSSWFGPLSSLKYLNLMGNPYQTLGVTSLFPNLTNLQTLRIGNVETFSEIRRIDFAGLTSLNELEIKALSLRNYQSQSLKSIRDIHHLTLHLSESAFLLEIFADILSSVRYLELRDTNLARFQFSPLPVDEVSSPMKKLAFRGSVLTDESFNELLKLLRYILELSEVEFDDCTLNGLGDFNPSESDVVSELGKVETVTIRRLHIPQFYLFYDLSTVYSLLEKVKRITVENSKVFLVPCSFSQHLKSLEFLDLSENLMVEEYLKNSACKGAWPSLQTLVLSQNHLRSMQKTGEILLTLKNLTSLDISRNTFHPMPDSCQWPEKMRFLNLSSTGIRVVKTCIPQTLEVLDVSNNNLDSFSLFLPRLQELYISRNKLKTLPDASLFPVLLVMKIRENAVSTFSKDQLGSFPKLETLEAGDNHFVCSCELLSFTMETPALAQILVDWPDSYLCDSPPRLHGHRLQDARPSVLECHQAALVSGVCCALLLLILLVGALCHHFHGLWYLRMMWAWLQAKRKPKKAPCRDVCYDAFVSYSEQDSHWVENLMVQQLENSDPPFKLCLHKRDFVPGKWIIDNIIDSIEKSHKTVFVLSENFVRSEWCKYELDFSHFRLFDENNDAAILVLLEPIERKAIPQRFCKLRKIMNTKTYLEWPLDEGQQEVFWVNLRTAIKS", "assay": "Binding affinity to TLR-2 in C57BL/6 mouse peritoneal exudate macrophages assessed as cells binding to PE conjugated anti-TLR-2 monoclonal antibody at 10 ug/ml preincubated for 4 hrs followed by antibody addition by flow cytometry (reference value: 30.8%)"}, "[6]": {"molecular_target": "T1, Toll-like receptor 4 (Mus musculus)", "assay": "Binding affinity to TLR-4 in C57BL/6 mouse peritoneal exudate macrophages assessed as cells binding to PE conjugated anti-TLR-4 monoclonal antibody at 5 ug/ml preincubated for 4 hrs followed by antibody addition by flow cytometry (reference value: 50.8%)"}, "[7]": {"molecular_target": "T1, Toll-like receptor 4 (Mus musculus)", "assay": "Agonist activity at TLR-4 in mouse RAW264.7 cells assessed as increase in TNF-alpha production at 1 to 5 ug/ml measured within 2 hrs by ELISA", "type": "cell-based"}, "[8]": {"molecular_target": "T1, Toll-like receptor 4 (Mus musculus)", "assay": "Agonist activity at TLR-4 in TLR2 deficient C57BL/6 mouse peritoneal exudate macrophages assessed as increase in TNF-alpha production at 1 to 5 ug/ml measured after 2 to 24 hrs by ELISA"}, "[9]": {"molecular_target": "T1, Toll-like receptor 4 (Mus musculus)", "assay": "Agonist activity at TLR-4 in C57BL/6 mouse peritoneal exudate macrophages assessed as increase in TNF-alpha production at 1 to 5 ug/ml up to 24 hrs post dose by ELISA relative to thiophenyl-2-O-acetyl-3-O-benzoyl-4,6-O-pyruvate-[…]-D-galactopyranose"}, "[10]": {"assay": "Effect on adaptive immune system in mouse splenocytes assessed as polyclonal activation of B-lymphocytes", "type": "cell-based", "settings": "splenocyte"}, "[11]": {"molecular_target": "T1, Toll-like receptor 4 (Mus musculus)", "assay": "Agonist activity at TLR-4 in C57BL/6 mouse peritoneal exudate macrophages assessed as increase in IL-6 production at 1 to 5 ug/ml measured after 48 hrs by ELISA"}, "[12]": {"molecular_target": "T1, Toll-like receptor 4 (Mus musculus)", "assay": "Binding affinity to TLR-4 in C57BL/6 mouse peritoneal exudate macrophages assessed as cells binding to PE conjugated anti-TLR-4 monoclonal antibody at 10 ug/ml preincubated for 4 hrs followed by antibody addition by flow cytometry (reference value: 50.8%)"}, "[13]": {"assay": "Effect on adaptive immune system in mouse splenocytes assessed as polyclonal activation of T-lymphocytes", "type": "cell-based", "settings": "splenocyte"}, "[14]": {"molecular_target": "T1, Toll-like receptor 4 (Mus musculus)", "assay": "Agonist activity at TLR-4 in mouse RAW264.7 cells assessed as increase in IL-6 production at 1 to 5 ug/ml measured after 48 hrs by ELISA", "type": "cell-based"}, "[15]": {"molecular_target": "T1, Toll-like receptor 4 (Mus musculus)", "assay": "Agonist activity at TLR-4 in C57BL/6 mouse peritoneal exudate macrophages assessed as increase in IL-6 production at 1 to 5 ug/ml at 24 hrs post dose by ELISA relative to (Cyclohexyl-2-phthalimido-3,4,6-tri-O-acetyl-beta-D-glucopyranosyl)-2-O-acetyl-3-O-benzoyl-4,6-O-pyruvate-beta-D-galactopyranose"}}, "note": "The source made the active and inactive calls. The rule behind the calls is not given here.", "data": [{"smiles": "COC(=O)C1(C)OC[C@H]2O[C@@H](OC3CCC(O[C@@H]4O[C@H](COC(C)=O)[C@@H](OC(C)=O)[C@H](OC(C)=O)[C@H]4N4C(=O)c5ccccc5C4=O)CC3)[C@H](OC(C)=O)[C@@H](OC(=O)c3ccccc3)[C@H]2O1", "note": "(stereo partly specified)", "values": [{"measurement": "Activity", "setting": "[1]", "value": "Active"}, {"measurement": "Activity", "setting": "[2]", "value": 45.2, "unit": "%"}, {"measurement": "Activity", "setting": "[3]", "value": "Active"}, {"measurement": "Activity", "setting": "[4]", "value": "Dose-dependent effect"}, {"measurement": "Activity", "setting": "[5]", "value": 33.4, "unit": "%"}, {"measurement": "Activity", "setting": "[6]", "value": 37.3, "unit": "%"}, {"measurement": "Activity", "setting": "[7]", "value": "Active"}, {"measurement": "Activity", "setting": "[8]", "value": "Active"}, {"measurement": "Activity", "setting": "[9]", "value": 50, "unit": "%"}, {"measurement": "Activity", "setting": "[10]", "value": "Non-Toxic"}, {"measurement": "Activity", "setting": "[11]", "value": "Active"}, {"measurement": "Activity", "setting": "[12]", "value": 24.3, "unit": "%"}, {"measurement": "Activity", "setting": "[13]", "value": "Non-Toxic"}, {"measurement": "Activity", "setting": "[14]", "value": "Active"}]}, {"smiles": "COC(=O)C1(C)OC[C@H]2O[C@@H](Sc3ccccc3)[C@H](OC(C)=O)[C@@H](OC(=O)c3ccccc3)[C@H]2O1", "note": "(stereo partly specified)", "values": [{"measurement": "Activity", "setting": "[15]", "value": 50, "unit": "%"}]}, {"smiles": "CCS[C@@H]1O[C@H](COC(C)=O)[C@@H](OC(C)=O)[C@H](OC(C)=O)[C@H]1N1C(=O)c2ccccc2C1=O", "values": [{"measurement": "Activity", "setting": "[15]", "value": 50, "unit": "%"}]}]}
